Data set [1] is described as follows: Non-human primate CSF pharmacokinetics (Study B), cisterna magna versus lumbar sampling. The format is in vivo, Macaca fascicularis. The conditions noted are these: for Kp uu at 3 h / Kp uu at 24 h: female, Cynomolgus macaque, cynomolgus monkey, read-out: geomean ratio of CSF concentration to unbound concentration in plasma (Kp,uu). The text has this:
The objective of this study was to investigate the pharmacokinetics of Compound 1-14 after administration of a single […] bolus or oral gavage dose to cynomolgus monkeys on Day 1 and to evaluate differences in pharmacokinetic values when comparing CSF collected at the cisterna magna (as in Example 10A) versus lumbar locations. [table] • Species: Macaca fascicularis • Strain: Cynomolgus macaque • Number of Females: 4 • Age: Adult • Weight: 2.5-4 kg Single doses of Compound I-14 were administered intravenously as a bolus injection of a solution at 0.15 mg/kg and orally by gavage as a suspension at 0.5 mg/kg to a group of four female cynomolgus monkeys in a crossover design. Plasma samples were collected at 0.25 (15 min), 0.5 (30 min), 1, 2, 3, 6, 8, 12, 24, 32, and 48 h following the IV and PO doses. CSF samples were collected at 3 and 24 h for all animals from the cisterna magna in groups 1 and 2 and the lumbar from groups 3 and 4. Sample extracts were prepared by protein precipitation and Compound I-14 concentrations were measured using LC-MS/MS. Pharmacokinetic parameters were calculated.

The subject of data set [2] is memory disruption induced by MK-801 in male Long Evans rats. The experiment in a line: Novel Object Recognition (NOR) test, memory disruption induced by MK-801. The format is in vivo, rat. The conditions noted are these: any dose tested, oral. The protocol: In the present study, a memory saving model was used. MK-801 (Dizocilpine), an uncompetitive antagonist of the NMDA receptor was used to cause deficit of recognition memory. sGC stimulators were evaluated for their efficacy to prevent memory impairment induced by MK-801.
Adult male Long-Evans rats (275-299 gram at arrival from Envigo, Indianapolis, IN) were used in this study. Rats were placed in the experimental rooms and assigned unique identification numbers (tail marks). Rats were housed 2 per cage in polycarbonate cages with filter tops and acclimated for at least 7 days prior to testing. […]
NOR test was conducted in an open-field arena (40×40 cm) placed in a sound-attenuated room under dimmed lighting. […] All training and testing trials were video-taped and scored by an observer blind to treatments.
On Days 1 and 2, rats were allowed to freely explore the arena (no objects inside) for a 5-minute habituation period. […] Each rat was placed in the arena facing the same direction at the same position, and the time spent actively exploring the objects during a 3-minute training period (T1) was recorded. […] Each rat was placed back into the test arena in the presence of one familiar object and one novel object for 5 minutes, and the time spent exploring both objects was recorded. […]

The mark [3] stands for this setting: CSF (cisterna magna) / unbound plasma, IV bolus 0.15 mg/kg, cisterna magna sampling.
Where [4] appears, read: CSF (cisterna magna) / unbound plasma, oral gavage 0.5 mg/kg, cisterna magna sampling.
Setting [5] is: CSF (lumbar) / unbound plasma, IV bolus 0.15 mg/kg, lumbar sampling.
Where [6] appears, read: CSF (lumbar) / unbound plasma, oral gavage 0.5 mg/kg, lumbar sampling.

This is an account of results in patent publication US20260151391A1, “TREATMENT OF MITOCHONDRIAL DISEASES WITH sGC STIMULATORS” (Tisento Therapeutics Inc., priority 2022, published 2026).

Like-named read-outs stand apart in the source and are kept apart here.

Consider `Cc1cc(F)c(Cc2nc(-c3ncc(F)c(O)n3)cn3ccnc23)cc1F` [Compound I-14, 5-fluoro-2-(8-(2,5-difluoro-4-methylbenzyl)imidazo[1,2-a]pyrazin-6-yl)pyrimidin-4-ol], for which the “presence of compound in CSF” value in data set [1] (IV and PO administration, cisterna magna and lumbar sampling) is “observed in the CSF at 3 and 24 hours”. Also, the Kp uu at 3 h in data set [1] (setting [3]), in data set [1] (setting [4]), in data set [1] (setting [5]) and in data set [1] (setting [6]) was 2 to 3 in each case. In addition, the Kp uu at 24 h fell in the range of 1 to 2 in data set [1] (setting [3]), 2 to 3 in data set [1] (setting [4]), 1 to 2 in data set [1] (setting [5]) and 2 to 3 in data set [1] (setting [6]). Moreover, in data set [2], the “obvious side effects in NOR study” value is listed as “None of the rats in this study showed obvious side effects”.
